According to ChEMBL document CHEMBL3808353, “Targeting the Follicle Stimulating Hormone Receptor (FSHR) To Treat Fertility Disorders” (ACS Med Chem Lett, 2016):
pEC50: −log10 of the molar value.

How the values were obtained:
[1] = target: T1, Follicle-stimulating hormone receptor (Homo sapiens, UniProt P23945); experiment: Positive allosteric modulation of FSHR (unknown origin) expressed in CHO cells assessed as FSH-induced cAMP accumulation incubated for 1 hr by HTRF assay; format: functional, cell-based
T1 sequence (P23945 whole entry): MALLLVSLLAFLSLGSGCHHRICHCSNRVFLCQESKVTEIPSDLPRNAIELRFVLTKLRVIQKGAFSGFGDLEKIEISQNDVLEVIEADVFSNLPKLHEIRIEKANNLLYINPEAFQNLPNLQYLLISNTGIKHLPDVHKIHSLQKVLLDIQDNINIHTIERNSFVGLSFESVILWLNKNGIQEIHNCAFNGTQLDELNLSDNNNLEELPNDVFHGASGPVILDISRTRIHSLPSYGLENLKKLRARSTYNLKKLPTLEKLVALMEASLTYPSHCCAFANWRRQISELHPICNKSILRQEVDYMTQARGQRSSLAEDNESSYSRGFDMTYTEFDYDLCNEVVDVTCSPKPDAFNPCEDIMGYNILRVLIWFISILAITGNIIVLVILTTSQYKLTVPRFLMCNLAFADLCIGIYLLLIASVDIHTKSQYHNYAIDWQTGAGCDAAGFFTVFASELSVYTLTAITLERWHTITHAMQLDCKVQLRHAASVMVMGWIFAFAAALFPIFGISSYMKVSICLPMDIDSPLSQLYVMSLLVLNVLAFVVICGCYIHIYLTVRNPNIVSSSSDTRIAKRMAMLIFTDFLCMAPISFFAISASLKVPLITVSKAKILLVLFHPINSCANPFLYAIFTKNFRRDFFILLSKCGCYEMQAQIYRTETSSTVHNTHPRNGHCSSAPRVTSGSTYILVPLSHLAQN

[2] = target: T1, Follicle-stimulating hormone receptor; experiment: Positive allosteric modulation of human FSHR expressed in rat granulosa cells assessed as FSH-induced estradiol production after 72 hrs by radioimmunossay; format: cell-based

Row | SMILES | pEC50 [1] | pEC50 [2]
1 | Cc1ccccc1N1CCN(c2ccc(C(=O)NCCCN3CCCC3=O)cc2NC(=O)c2ccc(F)cc2)CC1 | 7.00 | 7.00
2 | Cc1ccccc1N1CCN(c2ccc(C(=O)NCCCN3CCCC3=O)cc2NC(=O)c2coc(C3CC3)n2)CC1 | > 7.00 | 7.00
3 | Cc1ccccc1N1CCN(c2ccc(C(=O)NCCCc3nn[nH]n3)cc2NC(=O)c2coc(C3CC3)n2)CC1 | > 7.00 | 7.00
4 | Cc1ccccc1N1CCN(c2ccc(C(=O)N[C@H]3CCC[C@H](O)C3)cc2NC(=O)c2coc(C3CC3)n2)CC1 | > 7.00 | 
5 | Cc1ccccc1N1CCN(c2ccc(C(=O)NCCCN3CCCC3=O)cc2NC(=O)c2ccco2)CC1 | > 7.00 | < 6.00
6 | C=CCNC(=O)NCCCNC(=O)c1ccc(N2CCN(c3ccccc3C)CC2)c(NC(=O)c2ccco2)c1 | > 7.00 | 
